Patent US20120238623A1, “Inflammation and Autoimmune Disorder Treatment using RARa Selective Agonists” (priority 2011, published 2012)

Legend:
RARα, RARβ, and RARγ = test: transactivation assay to measure agonist activity; type: cell-based; conditions: FIG. 2
From the text: Other RARα selective agonists useful as a compound disclosed herein are described in, e.g., Teng, et al., Aryl or Heteroaryl Amides of Tetrahydronaphthalene, Chroman, Thiochroman and 1,2,3,4-Tetrahydroquinoline Carboxylic Acids, Having an Electron Withdrawing Substituent in the Aromatic Or Heteroaromatic Moiety, Having Retinoid-Like Biological Activity, U.S. Pat. No. 5,856,490; Teng, et al., Methods of Treatment with Compounds Having RARα Receptor Specific or Selective Activity, U.S. Pat. No. 5,965,606; and Nehma, et al., Treatment of Tumors with RARα Selective Retinoid Compounds in Combination with Other Anti-Tumor Agents, U.S. Pat. No. 6,387,950; each of which is incorporated by reference in its entirety. […] Assays by which a compound can be tested and established whether or not it is an RARα selective agonist, are known in the art and are described in numerous prior art publications and patents.

RARβ = target: T1, RARβ (Homo sapiens, UniProt P10826); test: displacement assay to measure agonist binding affinity; conditions: read-out: Binding Affinities for RARβ
T1 sequence (P10826 1-455): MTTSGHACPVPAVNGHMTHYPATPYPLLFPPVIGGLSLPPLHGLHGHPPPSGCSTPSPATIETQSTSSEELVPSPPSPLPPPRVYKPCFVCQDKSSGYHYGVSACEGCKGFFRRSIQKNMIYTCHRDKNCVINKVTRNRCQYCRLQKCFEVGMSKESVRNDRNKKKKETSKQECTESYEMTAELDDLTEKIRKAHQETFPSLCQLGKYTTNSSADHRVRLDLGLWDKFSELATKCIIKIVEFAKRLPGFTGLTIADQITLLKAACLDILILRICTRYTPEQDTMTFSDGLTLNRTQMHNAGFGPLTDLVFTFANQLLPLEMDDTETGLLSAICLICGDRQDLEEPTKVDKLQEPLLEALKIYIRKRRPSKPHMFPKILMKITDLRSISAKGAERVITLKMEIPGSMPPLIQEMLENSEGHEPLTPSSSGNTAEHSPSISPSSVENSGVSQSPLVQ

CD4+ T cells = test: in vivo FoxP3 expression in CD4+ T cells of blood and spleen; set-up: species or system mouse; conditions: mice, 100 μg every other day for 10 days
Protocol: To expand on the finding above, the in vivo effects of a RARα selective agonist on T cell differentiation was evaluated in a mouse model. Mice were treated 100 μg of compound 5183 (a RARα agonist) or an equivalent volume of DMSO (vehicle control) every other day for 10 days. Lymphocytes from the blood and spleen were then isolated and FoxP3 expression in CD4^+ T cells was assessed.

RARα = target: T2, RARα (Homo sapiens, UniProt P10276); test: displacement assay to measure agonist binding affinity; conditions: read-out: Binding Affinities for RARα
T2 sequence (P10276 1-462): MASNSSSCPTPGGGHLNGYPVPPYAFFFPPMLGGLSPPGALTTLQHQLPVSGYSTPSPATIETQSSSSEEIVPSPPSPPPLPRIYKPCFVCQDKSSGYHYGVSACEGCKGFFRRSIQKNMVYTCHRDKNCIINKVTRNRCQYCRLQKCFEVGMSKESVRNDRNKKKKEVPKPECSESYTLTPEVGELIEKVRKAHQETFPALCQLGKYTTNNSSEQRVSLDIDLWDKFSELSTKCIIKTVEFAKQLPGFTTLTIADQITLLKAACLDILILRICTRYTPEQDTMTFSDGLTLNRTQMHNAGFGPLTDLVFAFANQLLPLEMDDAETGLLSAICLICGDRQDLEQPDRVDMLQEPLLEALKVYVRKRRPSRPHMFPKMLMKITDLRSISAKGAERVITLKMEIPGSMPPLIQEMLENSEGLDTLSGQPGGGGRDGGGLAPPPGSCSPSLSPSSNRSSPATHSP

RARγ = target: T3, RARγ (Homo sapiens, UniProt P13631); test: as above; conditions: read-out: Binding Affinities for RARγ
T3 sequence (P13631 1-454): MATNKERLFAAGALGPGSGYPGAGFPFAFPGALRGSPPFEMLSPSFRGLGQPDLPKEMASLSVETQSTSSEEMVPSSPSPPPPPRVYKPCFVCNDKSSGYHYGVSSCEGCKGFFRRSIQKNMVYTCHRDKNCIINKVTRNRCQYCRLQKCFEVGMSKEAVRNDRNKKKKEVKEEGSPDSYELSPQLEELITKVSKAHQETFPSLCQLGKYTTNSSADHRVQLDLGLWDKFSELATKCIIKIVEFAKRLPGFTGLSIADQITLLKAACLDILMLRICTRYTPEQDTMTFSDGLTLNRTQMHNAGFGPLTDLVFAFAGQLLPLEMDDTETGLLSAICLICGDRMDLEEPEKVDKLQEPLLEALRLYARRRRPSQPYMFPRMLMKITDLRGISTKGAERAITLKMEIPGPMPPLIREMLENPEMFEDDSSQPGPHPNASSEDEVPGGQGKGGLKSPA

[1] = tested on: Naive CD4+ CD25− FoxP3− cells; test: Treg cell differentiation (FoxP3-GFP expression by flow cytometry) in vitro; type: cell-based, mouse; conditions: αCD3, IL-2 and TGF-β
Protocol: Purified CD4+ CD25^− FoxP3^− cells were cultured in media with the specified concentration of each RAR agonist and analyzed by flow cytometry for FoxP3 (A), α4β7 (B), and CCR9 (C) expression in total CD4 T cells. FoxP3 results are representative of 3 independent experiments. CCR9 and α4β7 results are representative of multiple experiments.
It is important to determine which of the RAR (RARα, RARβ, RARγ) signaling pathways is important in the induction of Foxp3 expression. To determine this, naive CD4^+ CD25^− FoxP3^− cells were purified from a Foxp3-GFP mouse using flow cytometry by sorting and isolating based upon a GFP^− phenotype. These cells were activated polyclonally with αCD3 in vitro in the presence of IL-2 and TGF-β. To identify the RAR involved in RA-induced, the cultured cells were incubated with RAR selective agonists. The cultured cells were then score for the frequency of GFP+ (Foxp3+). With respect to the use of selective agonists, only the RARα agonist exerted significant impact on the expression of Foxp3 inducing nearly 100% Foxp3+ T cells, with enhancement on the expression of α4β7 and CCR9 (gut homing receptors) (FIG. 1). The RARγ and RARβ agonists were without effect.
(§1) To determine whether a RARα selective agonist could affect T cell differentiation, T cells were incubated with a RARα selective agonist to determine its effect on Foxp3 expression evaluated. Naive CD4^+ CD25^− FoxP3^− cells were purified from a Foxp3-GFP mouse using flow cytometry by sorting and isolating based upon a GFP^− phenotype. These cells were activated polyclonally with αCD3 in vitro in the presence of IL-2 and TGF-β. These cells were then cultured in media with various concentrations of compound 5183 (a RARα selective agonist) and the expression of FoxP3-GFP was analyzed by flow cytometry. The RARα selective agonist compound 5183 enhanced differentiation of immunosuppressive Treg cells and inhibited differentiation of inflammatory TH17 cells from Naïve T cells in vitro (Table 2).

[2] = tested on: experimental autoimmune encephalomyelitis (EAE); test: experimental autoimmune encephalomyelitis (EAE) mouse model; type: in vivo, SJL mice
Protocol: To determine if RARα selective agonists reduce symptoms associated with an autoimmune disorder, the effects of a RARα selective agonist was evaluated in an experimental autoimmune encephalomyelitis (EAE) mouse model. EAE is an inflammatory disease of the central nervous system widely used as a model of multiple sclerosis in which Th17 cells are the principle mediators of the symptoms observed. […] In one set of experiments, the effects of prophylactic dosing were assessed. Mice were administered 1 mg/kg of compound 5183 intraperitoneally every other day starting day 1 after EAE induction. In a second set of experiments, the effects of therapeutic dosing were assessed. Mice were administered 2 mg/kg of compound 5183 intraperitoneally every other day starting day 7 after EAE induction. Clinical parameters of disease (loss of bodyweight and paralysis/paresis) were monitored on a daily basis.

Naïve T cells = test: Th17 cell differentiation from Naïve T cells in vitro; type: cell-based, mouse
Protocol: as §1

For `CC1(C)CCC(C)(C)c2c1cc(C(=O)Nc1cc(F)c(C(=O)O)c(F)c1)c(O)c2Cl` [Compound 5183], the “activation of transcription from RARα, RARβ, and RARγ” value (RARα, RARβ, and RARγ) was “specifically activates RARα”, the Kd (RARβ) was greater than 10 µM and the “Foxp3+ Expression (%)” value (CD4+ T cells; Blood) was 4.3%. For the same compound, the “Foxp3+ Expression (%)” value (CD4+ T cells; Spleen) was 25%, the Kd (RARα) was 0.0047 µM and the Kd (RARγ) was greater than 10 µM. For the same compound, the “Treg cell Percent Differentiation (%)” value ([1]; 0.1 nM) was 26%, the “Treg cell Percent Differentiation (%)” value ([1]; 1 nM) was 55% and the “Treg cell Percent Differentiation (%)” value ([1]; 10 nM) was 90%. For the same compound, the “symptoms associated with EAE (loss of bodyweight and paralysis/paresis)” value ([2]; prophylactic dosing: 1 mg/kg intraperitoneally every other day starting day 1 after EAE induction) was “reduced symptoms associated with EAE”, the “symptoms associated with EAE (loss of bodyweight and paralysis/paresis)” value ([2]; therapeutic dosing: 2 mg/kg intraperitoneally every other day starting day 7 after EAE induction) was “reduced symptoms associated with EAE” and the “Th17 cell Percent Differentiation (%)” value (Naïve T cells; 0.1 nM) was 32%. For the same compound, the “Th17 cell Percent Differentiation (%)” value (Naïve T cells; 1 nM) was 21%, the “Th17 cell Percent Differentiation (%)” value (Naïve T cells; 10 nM) was 11% and the “Th17 cell Percent Differentiation (%)” value (Naïve T cells; 100 nM) was 5%.
